The values below come from PMC2633172 (The FASEB Journal, 2009).

Bridge positions count the residues as written; N and C are the ends. Ends that are not written are not given here. * marks the point of attachment. Biotin = O=C1N[C@H]2[C@H](CS[C@H]2CCCCC(=O)*)N1

The test system of assay [1] is γ-IFN stimulated U937 cells. The experiment in a line: Inhibition of superoxide burst triggered by bead-peptide 33 complexes. Conditions: soluble peptide; submaximal concentration of bead-peptide 33 complexes. It is filed as cell-based, human.
In assay [2] the test system is γ-IFN stimulated U937 cells. The experiment in a line: Phagocytosis of fluorescent bead complexes by flow cytometry. It is filed as cell-based, human. Particulars: FITC-labeled bead complexes. Background: Flow cytometry measures light scatter and fluorescence of single cells or particles in a stream.
The target in assay [3] is Human FcγRI extracellular domain (human, UniProt P12314 16-292). The experiment in a line: AlphaScreen or HTRF.
Chain of Human FcγRI extracellular domain (P12314 16-292): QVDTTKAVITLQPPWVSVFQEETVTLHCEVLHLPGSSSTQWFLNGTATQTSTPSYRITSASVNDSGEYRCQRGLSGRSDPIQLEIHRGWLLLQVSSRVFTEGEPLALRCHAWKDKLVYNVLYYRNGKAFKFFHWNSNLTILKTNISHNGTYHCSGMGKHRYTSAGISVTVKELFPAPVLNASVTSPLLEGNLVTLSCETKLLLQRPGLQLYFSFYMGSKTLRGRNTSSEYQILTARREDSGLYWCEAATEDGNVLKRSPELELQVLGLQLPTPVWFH

With AQTDTSLMLPLLGSDEE [peptide 22 S4S13], the “ability to prevent receptor-mediated functions triggered by multimeric peptide 33” value in assay [1] is given as “only weakly able or unable”.
Turning to “TDT C LMLPLLLG C DEE (disulfide) [peptide 22]”, the “internalized fluorescence relative to bead-IgG1 complexes” value in assay [2] (2 h at 37°C, trypan blue quench, 10,000 cells) was no more than 2 fold. Moreover, in assay [2] (with IgG1 (67 μM)), the “bead-peptide signal intensity in the presence of IgG1” value was “reduced to background”.

B1: cyclic peptide 33 (peptide)
peptide: H-AQVNSCLLLPNLLGCGDDK(Biotin)
modifications: disulfide 6-15 (inferred)
Take B1: the binding result in assay [3] was “binds”.

B2: cyclic peptide 30 (peptide)
peptide: H-AQKDPCTRWAMLLGCDGEK(Biotin)
modifications: disulfide 6-15 (inferred)
With B2, in assay [3], the binding result is listed as “binds”.
